Data as given in US6399782B1, “Benzimidazole inhibitors of fructose 1,6-bisphosphatase” (Metabasis Therapeutics, Inc., priority 1997, dated 2002).
Where a name gives a salt, the structure may show the parent alone.

Structure (SMILES) | melting point
CC(C)COc1cccc2c1nc(-c1ccc(P(=O)(O)O)o1)n2CC(C)C [Compound 13.20, 1-Isobutyl-4-isobutyloxy-2-(2-phosphono-5-furanyl)benzimidazole] | 350 °C
CC(C)Cn1c(-c2ccc(P(=O)(O)O)o2)nc2c(Br)cc(Br)cc21 [Compound 13.43, 4,6-Dibromo-1-isobutyl-2-(2-phosphono-5-furanyl)benzimidazole] | 150 to 210 °C
Cc1c(C)c(C)c2[nH]c(-c3ccc(P(=O)(O)O)o3)nc2c1C [Compound 13.82, 4,5,6,7-Tetramethyl-2-(2-phosphono-5-furanyl)benzimidazole] | 202 to 206 °C
CCc1cc(F)c(N)c2nc(-c3ccc(P(=O)(O)O)o3)n(CC3CC3)c12 [Compound 12.75, 4-Amino-7-ethyl-5-fluoro-1-cyclopropylmethyl-2-(2-phosphono-5-furanyl)benzimidazole] | 178 to 185 °C
CC(C)Cn1c(-c2ccc(P(=O)(O)O)o2)nc2c(N)c(F)cc(-c3ccc(Cl)cc3)c21 [Compound 12.69, 4-Amino-7-p-chlorophenyl-5-fluoro-1-isobutyl-2-(2-phosphono-5-furanyl)benzimidazole] | 235 to 236 °C (dec.)
CC(C)Cn1c(-c2ccc(P(=O)(O)O)o2)nc2cc(Cl)c(F)cc21 [Compound 13.50, 5-Chloro-6-fluoro-1-isobutyl-2-(2-phosphono-5-furanyl)benzimidazole] | 196 to 199 °C
O=P(O)(O)c1ccc(-c2nc3ccccc3n2-c2ccccc2)o1 [Compound 13.12, 1-Phenyl-2-(2-phosphono-5-furanyl)benzimidazole] | 196 to 200 °C
Cc1cccc2c1nc(-c1ccc(P(=O)(O)O)o1)n2CC(C)C [Compound 13.54, 4-Methyl-1-isobutyl-2-(2-phosphono-5-furanyl)benzimidazole] | 208 to 211 °C
O=P(O)(O)c1ccc(-c2nc3cc(Cl)c(Cl)cc3n2CC2CC2)o1 [Compound 13.45, 5,6-Dichloro-1-cyclopropylmethyl-2-(2-phosphono-5-furanyl)benzimidazole] | 180 to 210 °C
Cc1c(Cl)cc2c(nc(-c3ccc(P(=O)(O)O)o3)n2CCCCBr)c1C [Compound 13.90, 1-(4-Bromobutyl)-4,5-dimethyl-6-chloro-2-(2-phosphono-5-furanyl)benzimidazole] | 212 to 216 °C
CC(C)Cn1c(-c2ccc(P(=O)(O)O)o2)nc2ccc(F)cc21 [Compound 13.27, 6-Fluoro-1-isobutyl-2-(2-phosphono-5-furanyl)benzimidazole] | 202 to 205 °C
Cc1c(Br)cc2c(nc(-c3ccc(P(=O)(O)O)o3)n2CC(C)C)c1C [Compound 13.53, 4,5-Dimethyl-6-bromo-1-isobutyl-2-(2-phosphono-5-furanyl)benzimidazole] | 205 to 209 °C
CC(C)Cn1c(-c2ccc(P(=O)(O)O)o2)nc2ccccc21 [Compound 13.2, 1-Isobutyl-2-(2-phosphono-5-furanyl)benzimidazole] | 200 to 203 °C
Cc1c(C)c(C)c2c(nc(-c3ccc(P(=O)(O)O)o3)n2CC2CC2)c1C (hydrate or solvate) [Compound 13.88, 1-Cyclopropylmethyl-4,5,6,7-tetramethyl-2-(2-phosphono-5-furanyl)benzimidazole] | 207 to 208 °C
COc1ccc2c(nc(-c3ccc(P(=O)(O)O)o3)n2CC(C)C)c1N [Compound 12.55, 4-Amino-5-methoxy-1-isobutyl-2-(2-phosphono-5-furanyl)benzimidazole] | 212 to 213 °C
NCCCCn1c(-c2ccc(P(=O)(O)O)o2)nc2ccc(Cl)cc21 (hydrate or solvate) [Compound 13.95, 1-(4-Aminobutyl)-6-chloro-2-(2-phosphono-5-furanyl)benzimidazole] | 250 to 252 °C (dec.)
CC(C)Cn1c(-c2ccc(P(=O)(O)O)o2)nc2cc(Cl)c(Cl)cc21 [Compound 13.44, 5,6-Dichloro-1-isobutyl-2-(2-phosphono-5-furanyl)benzimidazole] | 225 to 227 °C
CC(C)Cn1c(-c2ccc(P(=O)(O)O)o2)nc2c(N)c(O)ccc21 [Compound 11.1, 4-Amino-5-hydroxy-1-isobutyl-2-(2-phosphono-5-furanyl)benzimidazole] | 206 to 209 °C
Cc1cc(C)c2c(c1)nc(-c1ccc(P(=O)(O)O)o1)n2CC(C)C (hydrate or solvate) [Compound 13.87, 1-Isobutyl-5,7-dimethyl-2-(2-phosphono-5-furanyl)benzimidazole] | 196 to 200 °C
CC(C)Cn1c(-c2ccc(P(=O)(O)O)o2)nc2cc(Cl)ccc21 [Compound 13.16, 5-Chloro-1-isobutyl-2-(2-phosphono-5-furanyl)benzimidazole] | 238 °C
Nc1c(Br)c(Cl)c(Cl)c2nc(-c3ccc(P(=O)(O)O)o3)[nH]c12 [Compound 12.58, 4-Amino-5-bromo-6,7-dichloro-2-(2-phosphono-5-furanyl)benzimidazole] | 224 to 225 °C

Structure (SMILES) | melting point
CCCc1cc(F)c(N)c2nc(-c3ccc(P(=O)(O)O)o3)n(CC(C)C)c12 [Compound 12.81, 4-Amino-5-fluoro-7-n-propyl-1-isobutyl-2-(2-phosphono-5-furanyl)benzimidazole] | 220 to 230 °C (dec.)
Cc1cc(C)c2nc(-c3ccc(P(=O)(O)O)o3)n(CC(C)C)c2c1 (hydrate or solvate) [Compound 13.85, 1-Isobutyl-4,6-dimethyl-2-(2-phosphono-5-furanyl)benzimidazole] | 209 to 212 °C
COc1cccc(-c2cc(F)c(N)c3nc(-c4ccc(P(=O)(O)O)o4)n(CC(C)C)c23)c1 [Compound 12.74, 4-Amino-7-m-methoxyphenyl-5-fluoro-1-isobutyl-2-(2-phosphono-5-furanyl)benzimidazole] | 208 to 212 °C (dec.)
COc1cccc(-n2c(-c3ccc(P(=O)(O)O)o3)nc3ccc(Cl)cc32)c1 [Compound 13.65, 6-Chloro-1-(3-methoxyphenyl)-2-(2-phosphono-5-furanyl)benzimidazole] | 184 to 185 °C
CC(C)Cn1c(-c2ccc(P(=O)(O)O)o2)nc2c(N)c(F)cc(CCCN(C)C)c21 (as salt: hydrobromid) [Compound 12.84, 4-Amino-5-fluoro-7-(3-N,N-dimethylpropylamine)-1-isobutyl-2-(2-phosphono-5-furanyl)benzimidazole hydrobromide salt] | 208 to 212 °C (dec.)
CC(C)Cn1c(-c2ccc(P(=O)(O)O)o2)nc2c(N)c(F)cc(CCCCCl)c21 [Compound 12.83, 4-Amino-5-fluoro-7-(4-chlorobutyl)-1-isobutyl-2-(2-phosphono-5-furanyl)benzimidazole] | 210 to 220 °C (dec.)
CC(C)Cn1c(-c2ccc(P(=O)(O)O)o2)nc2c(Cl)cc(Cl)cc21 [Compound 13.39, 4,6-Dichloro-1-isobutyl-2-(2-phosphono-5-furanyl)benzimidazole] | 155 to 175 °C
CCC(CC)Cn1c(-c2ccc(P(=O)(O)O)o2)nc2c(N)c(F)ccc21 [Compound 12.73, 4-Amino-5-fluoro-1-(2-ethylbutyl)-2-(2-phosphono-5-furanyl)benzimidazole] | 178 to 182 °C (dec.)
CC(=O)Nc1c(F)cc2nc(-c3ccc(P(=O)(O)O)o3)n(CC(C)C)c2c1Br [Compound 13.76, 1-Isobutyl-5-fluoro-6-acetamido-7-bromo-2-(2-phosphono-5-furanyl)benzimidazole] | 217 to 221 °C (dec.)
Cl.NCCCCn1c(-c2ccc(P(=O)(O)O)o2)nc2cc(Cl)ccc21 (hydrate or solvate) | 236 to 240 °C (dec.)
CC(C)Cn1c(-c2ccc(P(=O)(O)O)o2)nc2c(N)c(F)cc(C3CC3)c21 [Compound 12.66, 4-Amino-7-cyclopropyl-5-fluoro-1-isobutyl-2-(2-phosphono-5-furanyl)benzimidazole] | 250 to 255 °C (dec.)
CC(C)Cn1c(-c2ccc(P(=O)(O)O)o2)nc2c(N)c(F)cc(-c3ccc(F)cc3)c21 [Compound 12.68, 4-Amino-7-p-fluorophenyl-5-fluoro-1-isobutyl-2-(2-phosphono5-furanyl)benzimidazole] | 239 to 240 °C (dec.)
CCCc1ccc2c(nc(-c3ccc(P(=O)(O)O)o3)n2CC(C)C)c1N [Compound 12.60, 4-Amino-5-propyl-1-isobutyl-2-(2-phosphono-5-furanyl)benzimidazole] | 207 to 210 °C
CCc1cc(F)c(N)c2c1nc(-c1ccc(P(=O)(O)O)o1)n2CC(C)C [Compound 12.65, 7-Amino-4-ethyl-6-fluoro-1-isobutyl-2-(2-phosphono-5-furanyl)benzimidazole] | 249 to 250 °C
CC(C)Cn1c(-c2ccc(P(=O)(O)O)o2)nc2cc(F)c([N+](=O)[O-])c(Br)c21 [Compound 13.68, 1-Isobutyl-5-fluoro-6-nitro-7-bromo-2-(2-phosphono-5-furanyl)benzimidazole] | 161 to 165 °C
CC(C)Cn1c(-c2ccc(P(=O)(O)O)o2)nc2cc(F)c(N)c(Br)c21 [Compound 13.69, 1-Isobutyl-5-fluoro-6-amino-7-bromo-2-(2-phosphono-5-furanyl)benzimidazole] | 208 to 211 °C
CC(C)n1c(-c2ccc(P(=O)(O)O)o2)nc2cc(Cl)ccc21 [Compound 13.33, 5-Chloro-1-isopropyl-2-(2-phosphono-5-furanyl)benzimidazole] | 192 to 195 °C
CC(C)Cn1c(-c2ccc(P(=O)(O)O)o2)nc2cc(F)c(F)c(F)c21 [Compound 12.77, 5,6,7-Trifluoro-1-isobutyl-2-(2-phosphono-5-furanyl)benzimidazole] | 250 to 260 °C
O=P(O)(O)c1ccc(-c2nc3ccccc3[nH]2)o1 [Compound 13.1, 2-(2-Phosphono-5-furanyl)benzimidazole] | > 250 °C
CC(C)Cn1c(-c2ccc(P(=O)(O)O)o2)nc2c(F)c(F)c(F)cc21 [Compound 12.78, 4,5,6-Trifluoro-1-isobutyl-2-(2-phosphono-5-furanyl)benzimidazole] | 155 to 158 °C
C=Cc1cc(F)c(N)c2nc(-c3ccc(P(=O)(O)O)o3)n(CC(C)C)c12 [Compound 12.70, 4-Amino-7-vinyl-5-fluoro-1-isobutyl-2-(2-phosphono-5-furanyl)benzimidazole] | 238 to 242 °C
